Source: paper PMC11945486, “TAS1R2/TAS1R3 Single-Nucleotide Polymorphisms Affect Sweet Taste Receptor Activation by Sweeteners: The SWEET Project” (Nutrients, 2025)
No end group written: not given here.

Target: T1, mTAS1R2-WT/mTAS1R3-WT (Mus musculus, UniProt Q925D8+Q925I4)
T1 construct: expressed in transfected cells; host or cells: HEK293T-Gα16gust44
T1 sequence (Q925I4 20-843): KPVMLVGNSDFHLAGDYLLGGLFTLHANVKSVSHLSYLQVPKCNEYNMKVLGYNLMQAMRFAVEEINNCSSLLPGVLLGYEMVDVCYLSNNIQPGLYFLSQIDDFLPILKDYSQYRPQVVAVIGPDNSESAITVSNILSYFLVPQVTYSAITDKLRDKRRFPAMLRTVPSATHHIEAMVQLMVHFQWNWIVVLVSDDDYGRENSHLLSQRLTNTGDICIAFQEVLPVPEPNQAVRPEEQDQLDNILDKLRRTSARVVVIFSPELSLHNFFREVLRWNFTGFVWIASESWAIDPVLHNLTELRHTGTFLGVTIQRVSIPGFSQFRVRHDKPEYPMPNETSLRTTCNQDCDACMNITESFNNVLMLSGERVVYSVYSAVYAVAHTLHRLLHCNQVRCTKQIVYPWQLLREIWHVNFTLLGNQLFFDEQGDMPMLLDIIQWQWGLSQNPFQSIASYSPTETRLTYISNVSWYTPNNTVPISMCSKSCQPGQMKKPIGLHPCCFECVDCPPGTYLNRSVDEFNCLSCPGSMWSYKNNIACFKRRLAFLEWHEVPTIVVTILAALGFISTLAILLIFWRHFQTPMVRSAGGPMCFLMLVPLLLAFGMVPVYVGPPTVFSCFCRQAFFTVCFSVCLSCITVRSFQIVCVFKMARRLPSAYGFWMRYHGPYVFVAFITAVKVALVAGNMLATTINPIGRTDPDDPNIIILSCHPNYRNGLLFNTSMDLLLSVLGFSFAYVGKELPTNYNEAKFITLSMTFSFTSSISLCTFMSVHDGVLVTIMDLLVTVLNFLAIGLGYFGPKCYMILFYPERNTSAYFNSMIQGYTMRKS
T1 sequence (Q925D8 21-858): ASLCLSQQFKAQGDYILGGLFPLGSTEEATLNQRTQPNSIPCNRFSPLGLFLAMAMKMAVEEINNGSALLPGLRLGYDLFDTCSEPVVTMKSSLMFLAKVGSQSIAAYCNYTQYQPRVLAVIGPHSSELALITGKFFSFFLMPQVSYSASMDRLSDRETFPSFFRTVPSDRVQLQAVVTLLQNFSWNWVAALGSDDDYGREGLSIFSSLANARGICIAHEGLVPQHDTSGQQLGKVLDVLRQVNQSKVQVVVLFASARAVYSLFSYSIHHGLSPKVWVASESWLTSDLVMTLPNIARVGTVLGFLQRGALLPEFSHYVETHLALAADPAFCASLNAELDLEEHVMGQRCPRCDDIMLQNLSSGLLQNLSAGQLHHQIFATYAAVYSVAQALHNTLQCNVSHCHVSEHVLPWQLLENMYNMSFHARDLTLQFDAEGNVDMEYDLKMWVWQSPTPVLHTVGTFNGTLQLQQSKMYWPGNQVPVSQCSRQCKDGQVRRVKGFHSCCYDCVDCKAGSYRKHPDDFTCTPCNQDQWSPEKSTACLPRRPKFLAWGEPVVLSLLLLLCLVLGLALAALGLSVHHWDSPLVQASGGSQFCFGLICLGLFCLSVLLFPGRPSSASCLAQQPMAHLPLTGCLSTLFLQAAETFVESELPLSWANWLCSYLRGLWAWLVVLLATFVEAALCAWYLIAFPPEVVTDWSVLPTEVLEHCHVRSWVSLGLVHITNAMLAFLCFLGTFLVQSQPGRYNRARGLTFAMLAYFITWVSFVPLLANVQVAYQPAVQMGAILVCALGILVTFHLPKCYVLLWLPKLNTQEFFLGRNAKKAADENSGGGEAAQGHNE
Test: Calcium mobilisation assay, HEK293T-Gα16gust44 cells, mouse sweet taste receptor WT
Type: cell-based
Conditions: for EC50 / Max ΔF/F0: mTAS1R2-WT + mTAS1R3-WT, "-": no activation; for Max ΔF/F0: maximal signal amplitude; for activation of the mouse sweet taste receptor: result in words
Procedure: The HEK293T cells were kindly provided by Jay P. Slack (Givaudan Flavors Corporation; Cincinnati, OH, USA). HEK293T cells stably transfected with Gα16gust44 [43, 67] were seeded in poly-D-lysine-coated clear-bottom black 96-well plates (0.35 × 10^5 cells/well) in high-glucose DMEM supplemented with 2 mM GlutaMAX, 10% dialysed foetal bovine serum with penicillin/streptomycin and G418 (400 μg/mL) at 37 °C and 6.3% CO2 in a humidified atmosphere as previously reported. […] As a negative control, HEK293T cells were mock-transfected with the empty expression vector. After a further 24 h of incubation, the HEK293T cells were washed with C1 buffer (130 mM NaCl, 5 mM KCl, 10 mM HEPES pH 7.4 and 2 mM CaCl2). The 96-well plates containing the cells were then stimulated with sweet-tasting compounds. […] Different concentration ranges were tested depending on the sweet compound injected. The Ca^2+ changes were expressed as fractional changes in fluorescent light intensity: ΔF/F = (F − F0)/F0, where F was the fluorescent light intensity at each point, and F0 was the value of emitted fluorescent light prior to stimulus application. To calculate dose–response relationships, the changes in fluorescence upon stimulus application were averaged, mock-subtracted and baseline-corrected. The dose–response data obtained were adjusted using a 4-parameter logistic equation. The half-maximal effective concentrations (EC50 values) and maximal signal amplitudes were calculated using SigmaPlot software (version 15.0) (Systat Software; San Jose, CA, USA).
HEK293T-Gα16gust44 cells were transiently cotransfected with pcDNA6-MAX-mTAS1R2-FLAG, pcDNA4-MAX-mTAS1R3-WT-FLAG or pcDNA4-MAX-mTAS1R3-I60T-FLAG, and pCMV-GCaMP5G as previously described in detail. After 24 h, the cells were washed with C1 buffer and stimulated with a logarithmically increasing range of sweetener concentrations. Calcium responses during automated application were monitored using a FlexStation®3 Multi-Mode microplate reader. The dose–response curves, EC50 values and maximal signal amplitudes were calculated as previously described.
For in vitro calcium mobilisation assay performed on hTAS1R2-SNPs, hTAS1R3-SNPs and mTAS1R3-I60T, 6 to 7 concentrations were tested for each sweet compound, plus buffer alone. All concentration–receptor combinations were measured in duplicate, and each experiment was repeated at least 4 times (8 wells/concentration). Results were expressed for each concentration as ΔF/F mean ± SEM and represented as dose–response curves.

Compound | EC50 [µM] | Max ΔF/F0 | activation of the mouse sweet taste receptor
OC[C@H]1O[C@H](O[C@]2(CCl)O[C@H](CCl)[C@@H](O)[C@@H]2O)[C@H](O)[C@@H](O)[C@H]1Cl [Sucralose] | 778 ± 22 | 2.03 ± 0.02 | –
O=S(=O)(O)NC1CCCCC1 [Cyclamate, cyclamate] | – | – | not activated
C=C(C)[C@@H]1CC=C(/C=N/O)CC1 [Perillartine, perillartine] | – | – | not activated
C=C1C[C@@]23CC[C@H]4[C@@](C)(CCC[C@@]4(C)C(=O)O[C@@H]4O[C@H](CO)[C@@H](O)[C@H](O[C@@H]5O[C@H](CO)[C@@H](O)[C@H](O)[C@H]5O)[C@H]4O[C@@H]4O[C@H](CO)[C@@H](O)[C@H](O)[C@H]4O)[C@@H]2CC[C@]1(O[C@@H]1O[C@H](CO)[C@@H](O)[C@H](O[C@@H]2O[C@H](CO)[C@@H](O)[C@H](O)[C@H]2O)[C@H]1O[C@@H]1O[C@H](CO)[C@@H](O)[C@H](O)[C@H]1O)C3 [Rebaudioside M, rebaudioside M] | 44 ± 4 | 1.41 ± 0.05 | –
COc1ccc(CCC(=O)c2c(O)cc(O[C@@H]3O[C@H](CO)[C@@H](O)[C@H](O)[C@H]3O[C@@H]3O[C@@H](C)[C@H](O)[C@@H](O)[C@H]3O)cc2O)cc1O [NHDC, neohesperidin dihydrochalcone] | – | – | not activated
thaumatin | – | – | not activated
CC1=CC(=O)NS(=O)(=O)O1 [Acesulfame K, acesulfame K] | 439 ± 10 | 1.63 ± 0.02 | –
brazzein (QDKCKKVYENYPVSKCQLANQCNYDCKLDKHARSGECFYDEKRNLQCICDYCEY; ends and bridges not checked; cysteine pairing not given here; UniProt P56552 1-54, looked up) [sweet-tasting protein obtained by recombinant production using the yeast Pichia pastoris] | – | – | not activated
C[C@H](CC[C@@H](O[C@@H]1O[C@H](CO[C@@H]2O[C@H](CO)[C@@H](O)[C@H](O)[C@H]2O)[C@@H](O)[C@H](O)[C@H]1O[C@@H]1O[C@H](CO)[C@@H](O)[C@H](O)[C@H]1O)C(C)(C)O)[C@H]1CC[C@@]2(C)[C@@H]3CC=C4[C@@H](CC[C@H](O[C@@H]5O[C@H](CO[C@@H]6O[C@H](CO)[C@@H](O)[C@H](O)[C@H]6O)[C@@H](O)[C@H](O)[C@H]5O)C4(C)C)[C@]3(C)[C@H](O)C[C@]12C [Mogroside V, mogroside V] | 133 ± 6 | 0.84 ± 0.02 | –
COC(=O)[C@H](Cc1ccccc1)NC(=O)[C@H](CC(=O)O)NCCC(C)(C)C [Neotame] | – | – | not activated
